Experiments:
[1] = molecular target: T1, 11-beta-hydroxysteroid dehydrogenase 1 (Homo sapiens, UniProt P28845)
Description: Inhibition of human 11beta-HSD1 over expressed in CHO cells by whole cell assay

[2] = molecular target: T1, 11-beta-hydroxysteroid dehydrogenase 1; remark: listed apart in the source
Description: Displacement of [3H]cortisone from human recombinant 11beta-HSD1 by SPA

[3] = Volume of distribution in Sprague-Dawley rat at 2 mg/kg, iv; format: ADME, organism-based; parameters: dose 2 mg/kg, route intravenous; conditions: in vivo, read-out: Vss
[4] = Clearance in Sprague-Dawley rat at 2 mg/kg, iv; format: ADME, organism-based; parameters: dose 2 mg/kg, route intravenous; conditions: in vivo
[5] = Oral bioavailability in Sprague-Dawley rat at 10 mg/kg, po; format: ADME, organism-based; conditions: in vivo
[6] = Cmax in Sprague-Dawley rat at 10 mg/kg, po; format: ADME, organism-based; parameters: dose 10 mg/kg, route oral; conditions: in vivo
Glucocorticoid receptor = molecular target: T2, Glucocorticoid receptor (Homo sapiens, UniProt P04150); experiment: Inhibition of glucocorticoid receptor
T2 sequence (P04150 whole entry): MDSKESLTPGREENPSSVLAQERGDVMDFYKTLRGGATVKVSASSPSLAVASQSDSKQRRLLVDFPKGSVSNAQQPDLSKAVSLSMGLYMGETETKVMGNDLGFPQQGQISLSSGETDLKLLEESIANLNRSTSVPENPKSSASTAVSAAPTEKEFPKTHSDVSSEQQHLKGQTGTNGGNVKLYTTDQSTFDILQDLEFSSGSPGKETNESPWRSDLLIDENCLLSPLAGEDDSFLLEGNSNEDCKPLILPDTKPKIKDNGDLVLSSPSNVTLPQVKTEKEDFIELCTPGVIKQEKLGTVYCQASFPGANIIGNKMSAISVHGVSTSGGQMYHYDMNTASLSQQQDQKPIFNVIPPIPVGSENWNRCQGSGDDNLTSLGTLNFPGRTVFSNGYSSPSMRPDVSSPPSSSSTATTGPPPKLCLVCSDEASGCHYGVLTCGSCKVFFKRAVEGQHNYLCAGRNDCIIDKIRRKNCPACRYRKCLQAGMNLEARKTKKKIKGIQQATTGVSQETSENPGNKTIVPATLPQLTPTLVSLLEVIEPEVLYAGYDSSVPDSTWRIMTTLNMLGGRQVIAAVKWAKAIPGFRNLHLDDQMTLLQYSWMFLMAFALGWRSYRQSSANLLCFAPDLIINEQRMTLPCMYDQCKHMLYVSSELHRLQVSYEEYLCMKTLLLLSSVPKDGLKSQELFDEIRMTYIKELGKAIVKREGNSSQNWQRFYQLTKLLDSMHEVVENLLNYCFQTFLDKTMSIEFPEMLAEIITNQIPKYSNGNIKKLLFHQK

[7] = Drug level in adipose in C57/B16 mouse at 30 mg/kg, po after 2 hrs; format: ADME, organism-based; parameters: dose 30 mg/kg, route oral; conditions: read-out: Drug uptake
[8] = molecular target: 11-beta-hydroxysteroid dehydrogenase 1 (Mus musculus) (UniProt P50172); experiment: Reduction of 11beta-HSD1 activity in C57/B16 mouse at 30 mg/kg, po after 2 hrs; format: organism-based; parameters: dose 30 mg/kg; scale not given: the % may be the effect or the level left
Sequence of 11-beta-hydroxysteroid dehydrogenase 1 (Mus musculus) (P50172 whole entry, looked up): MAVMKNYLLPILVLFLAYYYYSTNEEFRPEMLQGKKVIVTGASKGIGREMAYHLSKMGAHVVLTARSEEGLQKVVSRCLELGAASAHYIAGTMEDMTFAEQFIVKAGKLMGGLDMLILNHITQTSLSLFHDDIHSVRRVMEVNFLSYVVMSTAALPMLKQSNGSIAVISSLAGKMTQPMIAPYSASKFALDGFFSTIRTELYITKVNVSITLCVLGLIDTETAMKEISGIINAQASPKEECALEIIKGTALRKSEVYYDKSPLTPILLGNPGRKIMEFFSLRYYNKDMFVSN

[9] = molecular target: 11-beta-hydroxysteroid dehydrogenase type 2 (Homo sapiens, UniProt P80365); experiment: Inhibition of human 11beta-HSD2
Sequence of 11-beta-hydroxysteroid dehydrogenase type 2 (P80365 whole entry, looked up): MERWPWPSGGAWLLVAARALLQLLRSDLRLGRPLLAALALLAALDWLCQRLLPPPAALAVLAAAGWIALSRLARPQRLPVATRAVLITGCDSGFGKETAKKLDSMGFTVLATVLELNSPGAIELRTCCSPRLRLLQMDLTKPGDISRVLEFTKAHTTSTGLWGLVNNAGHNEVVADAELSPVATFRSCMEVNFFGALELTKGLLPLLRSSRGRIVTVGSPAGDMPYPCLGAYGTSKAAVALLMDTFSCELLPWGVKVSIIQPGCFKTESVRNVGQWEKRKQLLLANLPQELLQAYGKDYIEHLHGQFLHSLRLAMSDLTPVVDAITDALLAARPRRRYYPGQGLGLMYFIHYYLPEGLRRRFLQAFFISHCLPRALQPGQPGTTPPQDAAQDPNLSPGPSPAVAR

[10] = molecular target: 11-beta-hydroxysteroid dehydrogenase 1 (Mus musculus) (UniProt P50172); experiment: Reduction of 11beta-HSD1 activity in C57/B16 mouse at 30 mg/kg, po after 6 hrs; format: organism-based; parameters: dose 30 mg/kg; scale not given: the % may be the effect or the level left
[11] = molecular target: 11-beta-hydroxysteroid dehydrogenase 1 (Mus musculus, UniProt P50172); experiment: Inhibition of murine 11beta-HSD1
Sequence of 11-beta-hydroxysteroid dehydrogenase 1 (Mus musculus, UniProt P50172) (P50172 whole entry): as the sequence (P50172 whole entry, looked up) above

[12] = Drug level in adipose in C57/B16 mouse at 30 mg/kg, po after 6 hrs; format: ADME, organism-based; parameters: dose 30 mg/kg, route oral; conditions: read-out: Drug uptake
[13] = Drug level in C57/B16 mouse plasma at 30 mg/kg, po after 6 hrs; format: ADME, organism-based; parameters: dose 30 mg/kg, route oral
[14] = Drug level in C57/B16 mouse plasma at 30 mg/kg, po after 2 hrs; format: ADME, organism-based; parameters: dose 30 mg/kg, route oral

T1 sequence (P28845 whole entry): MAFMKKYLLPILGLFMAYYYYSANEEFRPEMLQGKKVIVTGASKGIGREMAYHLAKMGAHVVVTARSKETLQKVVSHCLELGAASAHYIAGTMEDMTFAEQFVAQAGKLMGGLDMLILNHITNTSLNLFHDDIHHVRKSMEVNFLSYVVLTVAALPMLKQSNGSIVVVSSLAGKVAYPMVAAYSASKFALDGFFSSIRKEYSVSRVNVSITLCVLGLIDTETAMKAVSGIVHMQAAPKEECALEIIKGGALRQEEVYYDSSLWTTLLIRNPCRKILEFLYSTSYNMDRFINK

Row | SMILES | IC50 [1] [nM] | Ki [2] [nM] | Vd [3] [L/kg] | clearance [4] [mL/min/kg] | bioavailability [5] [%] | Cmax [6] [ng/mL] | IC50 (Glucocorticoid receptor) [nM] | concentration at 2 h [7] [µM] | Activity [8] [%] | IC50 [9] [nM] | Activity [10] [%] | Ki [11] [nM] | concentration at 6 h [12] [µM] | concentration at 6 h [13] [µM] | concentration at 2 h [14] [µM]
1 | CC(C)[C@]1(C)SC(N[C@@H](C)c2ccccc2F)=NC1=O |  |  | 5.73 | 42.8 | 20 | 176 |  |  |  |  |  |  |  |  | 
2 | C[C@H](NC1=NC(=O)C(C)(C(C)(C)F)S1)c1ccccc1F (some centres not stated) |  |  | 1.66 | 14.8 | 47 | 1080 |  |  |  |  |  |  |  |  | 
3 | CC(C)C1(C)SC(NCc2ccccc2)=NC1=O (configuration not stated) | 53 | 65 |  |  |  |  |  |  |  |  |  |  |  |  | 

Other lines, results leading:

Row | IC50 [1] [nM] | Ki [2] [nM] | Vd [3] [L/kg] | clearance [4] [mL/min/kg] | bioavailability [5] [%] | Cmax [6] [ng/mL] | IC50 (Glucocorticoid receptor) [nM] | concentration at 2 h [7] [µM] | Activity [8] [%] | IC50 [9] [nM] | Activity [10] [%] | Ki [11] [nM] | concentration at 6 h [12] [µM] | concentration at 6 h [13] [µM] | concentration at 2 h [14] [µM] | SMILES
4 | 56 | 20 | 2.98 | 8.35 | 55 | 1040 |  |  |  |  |  |  |  |  |  | C[C@H](NC1=NC(=O)C(C)(C(F)(F)F)S1)c1ccccc1F (some centres not stated)
5 | 96 | 48 | 1.66 | 9.6 | 50 | 1230 |  |  |  |  |  |  |  |  |  | C[C@H](NC1=NC(=O)[C@](C)(C(F)(F)F)S1)c1ccccc1F
6 | 33 | 22 | 1.2 | 3.13 | 75 | 4630 | > 50000 | 234 | 88 | > 10000 | 91 | 130 | 113 | 35 | 55 | C[C@H](NC1=NC(=O)[C@@](C)(C(F)(F)F)S1)c1ccccc1F

Reference: ChEMBL document CHEMBL1141395, “2-(S)-phenethylaminothiazolones as potent, orally efficacious inhibitors of 11beta-hydroxysteriod dehydrogenase type 1” (J Med Chem, 2007)
